According to ChEMBL document CHEMBL3885861, “Open TG-GATES”:

Organism: Rattus norvegicus
Assay: Open TG-GATES - Regimen: Daily Repeat
Assay type: toxicity, organism-based, Sprague-Dawley
Design: regimen Daily Repeat, gender Male, age 6 weeks
Conditions: in vivo, po, 0 mg/kg, route gavage, dose level Control; for APTT / Bas / Eos / Fbg / Hb / Ht / Lym / MCH / MCHC / MCV / Mono / Neu / PT / Plat / RBC / Ret / WBC: tissue Blood; for KIDNEY_L / KIDNEY_R / KIDNEY_TOTAL: tissue Kidney; for LIVER: tissue Liver; for A/G / ALP / ALT / AST / BUN / CRE / Ca / Cl / DBIL / GLC / IP / K / LDH / Na / PL / RALB / TBIL / TC / TG / TP / gamma-GTP: tissue Plasma

Work on `Cn1cnc([N+](=O)[O-])c1Sc1ncnc2nc[nH]c12` [AZATHIOPRINE] yielded a TERMINAL_BW (72 h, time 3 day) of 200.7 g, an APTT (72 h, time 3 day) of 21.5 s and a Bas (72 h, time 3 day) of 0%. For the same compound, the Eos (72 h, time 3 day) was 0.8%, the Fbg (72 h, time 3 day) was 305.2 mg/dL and the Hb (72 h, time 3 day) was 13.5 g/dL. It also gave a Ht (72 h, time 3 day) of 39.8%, a Lym (72 h, time 3 day) of 80.4% and an MCH (72 h, time 3 day) of 21.4 pg. For the same compound, the MCHC (72 h, time 3 day) was 33.8%, the MCV (72 h, time 3 day) was 63.1 fL and the Mono (72 h, time 3 day) was 2.2%. For the same compound, the Neu (72 h, time 3 day) was 15.4%, the PT (72 h, time 3 day) was 16.3 s and the Plat (72 h, time 3 day) was 129.4 x10_4/uL. It also gave an RBC (72 h, time 3 day) of 630.8 x10_4/ul, a Ret (72 h, time 3 day) of 8% and a WBC (72 h, time 3 day) of 91.1 x10_2/uL. It also gave a KIDNEY_L (72 h, time 3 day) of 0.9 g, a KIDNEY_R (72 h, time 3 day) of 0.9 g and a KIDNEY_TOTAL (72 h, time 3 day) of 1.8 g. It also gave an LIVER (72 h, time 3 day) of 9.6 g, an A/G (72 h, time 3 day) of 1.2 and an ALP (72 h, time 3 day) of 1684.4 IU/L. It also gave an ALT (72 h, time 3 day) of 44.2 IU/L, an AST (72 h, time 3 day) of 69.2 IU/L and a BUN (72 h, time 3 day) of 16.6 mg/dL. It also gave a CRE (72 h, time 3 day) of 0.1 mg/dL, a Ca (72 h, time 3 day) of 11.2 mg/dL and a Cl (72 h, time 3 day) of 105.8 meq/L. The DBIL (72 h, time 3 day) was 0 mg/dL, the GLC (72 h, time 3 day) was 194.4 mg/dL and the IP (72 h, time 3 day) was 7.2 mg/dL. It also gave a K (72 h, time 3 day) of 3.9 meq/L, an LDH (72 h, time 3 day) of 220.4 IU/L and a Na (72 h, time 3 day) of 144 meq/L. It also gave a PL (72 h, time 3 day) of 157.8 mg/dL, an RALB (72 h, time 3 day) of 3 g/dL and a TBIL (72 h, time 3 day) of 0.006 mg/dL. It also gave a TC (72 h, time 3 day) of 79.8 mg/dL, a TG (72 h, time 3 day) of 115.6 mg/dL and a TP (72 h, time 3 day) of 5.5 g/dL. The gamma-GTP (72 h, time 3 day) was 1 IU/L, the TERMINAL_BW ([…], time 7 day) was 246.2 g and the TERMINAL_BW ([…], time 14 day) was 269.5 g. The TERMINAL_BW ([…], time 28 day) was 356.1 g, the APTT ([…], time 7 day) was 21.9 s and the Bas ([…], time 7 day) was 0%. The Eos ([…], time 7 day) was 0.8%, the Fbg ([…], time 7 day) was 327.8 mg/dL and the Hb ([…], time 7 day) was 13.8 g/dL. The Ht ([…], time 7 day) was 39.8%, the Lym ([…], time 7 day) was 77.4% and the MCH ([…], time 7 day) was 21.9 pg. It also gave an MCHC ([…], time 7 day) of 34.7%, an MCV ([…], time 7 day) of 63 fL and a Mono ([…], time 7 day) of 2.4%. The Neu ([…], time 7 day) was 18.2%, the PT ([…], time 7 day) was 15.8 s and the Plat ([…], time 7 day) was 123.7 x10_4/uL. It also gave an RBC ([…], time 7 day) of 631.4 x10_4/ul, a Ret ([…], time 7 day) of 6.8% and a WBC ([…], time 7 day) of 129.6 x10_2/uL. For the same compound, the APTT ([…], time 14 day) was 22.4 s, the Bas ([…], time 14 day) was 0% and the Eos ([…], time 14 day) was 0.8%. For the same compound, the Fbg ([…], time 14 day) was 309 mg/dL, the Hb ([…], time 14 day) was 14.9 g/dL and the Ht ([…], time 14 day) was 41.2%. The Lym ([…], time 14 day) was 87%, the MCH ([…], time 14 day) was 21.4 pg and the MCHC ([…], time 14 day) was 36.1%. For the same compound, the MCV ([…], time 14 day) was 59.4 fL, the Mono ([…], time 14 day) was 1.4% and the Neu ([…], time 14 day) was 10%. The PT ([…], time 14 day) was 16.9 s, the Plat ([…], time 14 day) was 103.8 x10_4/uL and the RBC ([…], time 14 day) was 694.4 x10_4/ul. It also gave a Ret ([…], time 14 day) of 4%, a WBC ([…], time 14 day) of 113.3 x10_2/uL and an APTT ([…], time 28 day) of 23.7 s. It also gave a Bas ([…], time 28 day) of 0%, an Eos ([…], time 28 day) of 1% and a Fbg ([…], time 28 day) of 314.8 mg/dL. It also gave a Hb ([…], time 28 day) of 15.3 g/dL, a Ht ([…], time 28 day) of 44.8% and a Lym ([…], time 28 day) of 84.8%. For the same compound, the MCH ([…], time 28 day) was 19.6 pg, the MCHC ([…], time 28 day) was 34.3% and the MCV ([…], time 28 day) was 57.1 fL. For the same compound, the Mono ([…], time 28 day) was 1.4%, the Neu ([…], time 28 day) was 12% and the PT ([…], time 28 day) was 17.1 s. The Plat ([…], time 28 day) was 109.1 x10_4/uL, the RBC ([…], time 28 day) was 784 x10_4/ul and the Ret ([…], time 28 day) was 2.7%. It also gave a WBC ([…], time 28 day) of 122.9 x10_2/uL, a KIDNEY_L ([…], time 7 day) of 1 g and a KIDNEY_R ([…], time 7 day) of 1.1 g. For the same compound, the KIDNEY_TOTAL ([…], time 7 day) was 2.1 g, the KIDNEY_L ([…], time 14 day) was 1.1 g and the KIDNEY_R ([…], time 14 day) was 1.1 g. It also gave a KIDNEY_TOTAL ([…], time 14 day) of 2.2 g, a KIDNEY_L ([…], time 28 day) of 1.2 g and a KIDNEY_R ([…], time 28 day) of 1.2 g. It also gave a KIDNEY_TOTAL ([…], time 28 day) of 2.4 g, an LIVER ([…], time 7 day) of 11.4 g and an LIVER ([…], time 14 day) of 11.7 g. For the same compound, the LIVER ([…], time 28 day) was 14.3 g, the A/G ([…], time 7 day) was 1.2 and the ALP ([…], time 7 day) was 1579.8 IU/L. For the same compound, the ALT ([…], time 7 day) was 42.4 IU/L, the AST ([…], time 7 day) was 72 IU/L and the BUN ([…], time 7 day) was 20.2 mg/dL. It also gave a CRE ([…], time 7 day) of 0.2 mg/dL, a Ca ([…], time 7 day) of 10.8 mg/dL and a Cl ([…], time 7 day) of 107.2 meq/L. The DBIL ([…], time 7 day) was 0 mg/dL, the GLC ([…], time 7 day) was 201.4 mg/dL and the IP ([…], time 7 day) was 6.6 mg/dL. The K ([…], time 7 day) was 4.3 meq/L, the LDH ([…], time 7 day) was 194.8 IU/L and the Na ([…], time 7 day) was 143.2 meq/L. The PL ([…], time 7 day) was 156.6 mg/dL, the RALB ([…], time 7 day) was 3 g/dL and the TBIL ([…], time 7 day) was 0.004 mg/dL. The TC ([…], time 7 day) was 80 mg/dL, the TG ([…], time 7 day) was 118.4 mg/dL and the TP ([…], time 7 day) was 5.5 g/dL. It also gave a gamma-GTP ([…], time 7 day) of 1.2 IU/L, an A/G ([…], time 14 day) of 1.1 and an ALP ([…], time 14 day) of 1520.8 IU/L. It also gave an ALT ([…], time 14 day) of 35.6 IU/L, an AST ([…], time 14 day) of 66.8 IU/L and a BUN ([…], time 14 day) of 17.8 mg/dL. The CRE ([…], time 14 day) was 0.2 mg/dL, the Ca ([…], time 14 day) was 10.4 mg/dL and the Cl ([…], time 14 day) was 107 meq/L. The DBIL ([…], time 14 day) was 0 mg/dL, the GLC ([…], time 14 day) was 178.2 mg/dL and the IP ([…], time 14 day) was 6.5 mg/dL. The K ([…], time 14 day) was 4.3 meq/L, the LDH ([…], time 14 day) was 153.2 IU/L and the Na ([…], time 14 day) was 143.6 meq/L. For the same compound, the PL ([…], time 14 day) was 135.6 mg/dL, the RALB ([…], time 14 day) was 3 g/dL and the TBIL ([…], time 14 day) was 0.004 mg/dL. For the same compound, the TC ([…], time 14 day) was 63.4 mg/dL, the TG ([…], time 14 day) was 146.2 mg/dL and the TP ([…], time 14 day) was 5.8 g/dL. It also gave a gamma-GTP ([…], time 14 day) of 1.2 IU/L, an A/G ([…], time 28 day) of 1.1 and an ALP ([…], time 28 day) of 1240.4 IU/L. It also gave an ALT ([…], time 28 day) of 44.8 IU/L, an AST ([…], time 28 day) of 71.6 IU/L and a BUN ([…], time 28 day) of 18.6 mg/dL. The CRE ([…], time 28 day) was 0.2 mg/dL, the Ca ([…], time 28 day) was 10.3 mg/dL and the Cl ([…], time 28 day) was 106.6 meq/L. It also gave a DBIL ([…], time 28 day) of 0 mg/dL, a GLC ([…], time 28 day) of 202.4 mg/dL and an IP ([…], time 28 day) of 5.5 mg/dL. It also gave a K ([…], time 28 day) of 3.7 meq/L, an LDH ([…], time 28 day) of 175.2 IU/L and a Na ([…], time 28 day) of 141.4 meq/L. For the same compound, the PL ([…], time 28 day) was 145.8 mg/dL, the RALB ([…], time 28 day) was 3.1 g/dL and the TBIL ([…], time 28 day) was 0.01 mg/dL. It also gave a TC ([…], time 28 day) of 66 mg/dL, a TG ([…], time 28 day) of 159.8 mg/dL and a TP ([…], time 28 day) of 6 g/dL. The gamma-GTP ([…], time 28 day) was 1 IU/L.
